Measurements reported in patent publication EP4596561A1, “PHOSPHORUS-CONTAINING COMPOUND, PHARMACEUTICAL COMPOSITION AND USE THEREOF” (Suzhou Genhouse Bio Co., Ltd., priority 2022, dated 2024).
pIC50: −log10 of the molar value. Read-outs that look alike come from different tables or passages of the source. Values belong to the molecule of their own block, whether it stands above or below them.

How the values were obtained:
[1] = Pharmacokinetic test in mice (low dose); format: in vivo, Balb/c mice; details: mouse, in vivo
Protocol: The compounds of the present disclosure were administered to Balb/c mice by single intravenous injection and oral gavage, and the plasma of the mice at each time point was collected. The concentration of the compounds to be tested in BALB/C plasma was detected using the LC-MS/MS analysis method, and pharmacokinetic analysis was performed.
The mixture was vortexed, shaken, and ultrasonicated. The remaining volume of 25% sulfobutylether-β-cyclodextrin (sterilized) was added to prepare the final concentration solution or suspension.
Intravenous injection formulations will be directly administered in animal experiments without filtration. The IV drug preparation vials were disinfected in an infrared sterilization cabinet one day in advance.
Intravenous injection: Administration was performed via the tail vein. After the needle was inserted, the syringe was slowly […].
Gavage: Gavage needle and syringe of an appropriate type were selected. The gavage needle was inserted from the root of the tongue into the esophagus until it reached near the cardia of the stomach, then the drug formulation was injected, and the gavage needle was withdrawn. When disposable plastic gavage needles were used, one needle was used for each group.
At each time point, 60 µL of whole blood was collected from the submandibular vein or tail vein (except for the IV group). The blood sample was added to a pre-cooled anticoagulant blood collection tube containing anticoagulant EDTA-K2 (1 µL, 15% EDTA-K2 solution), placed on wet ice, and centrifuged (3000 g, 4 °C, 10 min) within 1 h. The plasma was immediately collected after centrifugation, transferred to an EP tube, and stored at -90 °C to -60 °C.
Plasma concentration detection: A developed LC-MS/MS method was used to detect the compounds in plasma.
The plasma concentration-time data were analyzed using a non-compartmental model in the Phoenix® WinNonlin® (Version 8.2, Pharsight, Mountain View, CA).

[2] = Saturated solubility in FaSSIF solution; format: physicochemical; details: room temperature, stirred overnight
Protocol: Efficacy Experimental Example 9: Test of Saturated Solubility of Samples in FaSSIF Solution
About 0.21 g of sodium hydroxide, about 2.24 g of sodium dihydrogen phosphate dihydrate, and 3.09 g of sodium chloride were weighed out and dissolved in 500 mL of water, and after dissolution, the pH was adjusted to 6.5 with 1 N sodium hydroxide or 1 N hydrochloric acid.
112 mg of FaSSIF solid was weighed out and placed in a 50 mL volumetric flask, and the buffer described above was added for dissolution. The resulting solution was diluted to volume, mixed well, and left to stand at room temperature for 2 h or more.
Test sample: About 1 mg of the test sample was taken, and 1 mL of FaSSIF solution was added. The mixture was stirred at room temperature overnight and centrifuged, and the supernatant was collected and injected for analysis.
Reference sample solution: About 1.5 mg of the test sample was precisely weighed out and placed in a 50 mL volumetric flask, and DMF was added for dissolution. The resulting solution was diluted to volume and mixed well.
The peak of the main component of the reference sample and the peak of the test sample with the same retention time were integrated, and the concentration thereof in the FaSSIF solution was calculated according to the external standard method.

in vivo = details: mouse, plasma, po, 200 mg/kg
Protocol: After adding 5% DMSO, the mixture was vortexed. 15% HS15 was then added, and the mixture was vortexed again. Finally, a 10% aqueous cyclodextrin solution was added, and the resulting mixture was vortexed to prepare the final concentration solution or suspension.

[3] = tested on: YAP-TEAD transcription complex; assay: YAP-TEAD reporter gene assay (dual luciferase, stably transfected 293T cells); format: cell-based; details: Homo sapiens, HEK-293T
Protocol: YAP-TEAD reporter gene The YAP-TEAD reporter gene assay was performed as follows. Firstly, the 8xGTIIC promoter sequence ([…] GTACTGTTGGTAAA) was constructed into a pGL4.20(luc2-Puro) plasmid, and the TK promoter ([…]) unrelated to the hippo pathway was constructed into a pGL4.78(hRlucCP/Hygro) plasmid, thereby constructing stably transfected 293T cells that can stably and continuously express the transcriptional activity of the YAP-TEAD transcription complex. After selection and identification of individual clones, the clones were grown and maintained in a DMEM medium containing 10% fetal bovine serum, penicillin-streptomycin solution, 1 µg/mL puromycin, and 150 µg/mL hygromycin. To perform reporter gene assays with the compounds to be tested, the well-growing cells described above were plated in a 384-well plate at a cell density of 3000 cells per well, with 90 µL per well. The periphery was sealed with an appropriate amount of PBS to prevent evaporation of water from the peripheral wells. Administration was performed on the next day after the cell plating. The test compounds were added at different concentration gradients, and three replicate wells were set for each concentration point. The compound concentration started at 5 µM and was diluted seven times with a 5-fold gradient. A corresponding negative control group treated with DMSO was also set up. After 24 h of drug treatment, the detection reagents were prepared first. The Dual-Lumi™ Firefly luciferase detection reagent and Dual-Lumi™ Renilla luciferase detection buffer were dissolved and brought to room temperature. […]. According to the amount of 100 µL of Dual-Lumi™ Renilla luciferase detection working solution required for the detection of each sample, an appropriate amount of Dual-Lumi™ Renilla luciferase detection working solution was prepared. […]. The cell culture plate was taken out and allowed to equilibrate at room temperature for 10 min (usually no more than 30 min). Then, 100 µL of Dual-Lumi™ Firefly luciferase detection reagent was added to each well of a 96-well plate (25 µL per well for the 384-well plate), and the mixture was mixed well. The mixture was then incubated at room temperature (about 25 °C) for 10 min to stabilize the luminescent signal, and then chemiluminescence was detected using a multimode microplate reader with a chemiluminescence detection function. Subsequently, the detection of Renilla luciferase began. Firstly, 100 µL of Dual-Lumi™ Renilla luciferase detection working solution was added to each well of a […] (25 µL per well for the 384-well plate), and the mixture was mixed well. The mixture was then incubated at room temperature (about 25 °C) for 10 min to stabilize the luminescent signal. Finally, chemiluminescence was detected using a multimode microplate reader with a chemiluminescence detection function. The obtained data were analyzed using GraphPad Prism 7.0 software. A sigmoidal dose-survival rate curve was plotted using a non-linear regression model, and the IC50 values were calculated.

NCI-H28 (NF2 wide-type) = assay: Inhibition of cell proliferation (CellTiter-Lumi); format: cell-based; details: Homo sapiens, 72 h + another 72 h treatment
Protocol: (§1) NCI-H2052 (NF2 mutant), NCI-H226 (NF2 mutant), NCI-H2452 (NF2 wide-type), NCI-H28 (NF2 wide-type), and MSTO-211H (NF2 wide-type) cells were cultured in RPMI 1640 complete media.
(§2) The normally growing cells described above were digested with a trypsin cell-digesting solution, centrifuged, counted, and then plated in a 96-well plate at a density of 1000 cells per well. Administration was performed 24 h after the cell plating. Inhibitors at different concentration gradients were added at 10 µL per well, and three replicate wells were set for each concentration point. The starting concentration was 20 µM and diluted 8 times with a 4-fold gradient. A corresponding negative control group treated with 0.1% DMSO was also set up. After 72 h of drug treatment, the cell culture plate to be tested was taken out of the incubator. The culture medium in the 96-well plate was pipetted, and 190 µL of fresh RPMI 1640 complete medium was added. Another administration was performed, and the cells were cultured for another 72 h. The 96-well plate was taken out and allowed to equilibrate at room temperature for 10 min. […] After shaking for two minutes, the mixture was reacted at room temperature for 10 min. Then, 150 µL of liquid was pipetted from the transparent 96-well plate and transferred to a white 96-well plate for chemiluminescence reading. The background value was subtracted from the value for each well to calculate the cell survival rate. Survival rate (%) = […]. Sample is the chemiluminescence of the drug-treated group, and Vehicle is the […] of the DMSO control group. A sigmoidal dose-survival rate curve was plotted using a non-linear regression model in the GraphPad Prism 7.0 software, and the IC50 values or GI50 values were calculated.

[4] = tested on: NCI-H2452 (NF2 wide-type); assay: Inhibition of cell proliferation (CellTiter-Lumi); format: cell-based; details: Homo sapiens, 72 h + another 72 h treatment
Protocol: as §1, §2

bioavailability ([1]; Balb/c): 81%
AUC(0-t) ([1]; Balb/c, iv, 2 mg/kg): 1.24 µM·h
clearance ([1]; Balb/c, iv, 2 mg/kg): 70.8 mL/min/kg
half-life ([1]; Balb/c, iv, 2 mg/kg): 1.4 h
AUC(0-t) ([1]; Balb/c, po, 10 mg/kg): 4.87 µM·h
Cmax ([1]; Balb/c, po, 10 mg/kg): 0.653 µM
half-life ([1]; Balb/c, po, 10 mg/kg): 5.6 h
SMILES: CC(C)NC(=O)c1ccc2c(Oc3ccc(C(F)(F)F)cc3)cccc2c1 [Comparative compound B1, reference compound]

FaSSIF(pH = 6.5) [2]: 16.4 ug/mL
AUC(0-t) (in vivo): 902 µM·h
bioavailability ([1]; Balb/c): 87.5%
AUC(0-t) ([1]; Balb/c, iv, 2 mg/kg): 8.75 µM·h
clearance ([1]; Balb/c, iv, 2 mg/kg): 6.03 mL/min/kg
half-life ([1]; Balb/c, iv, 2 mg/kg): 19.6 h
AUC(0-t) ([1]; Balb/c, po, 10 mg/kg): 52.8 µM·h
Cmax ([1]; Balb/c, po, 10 mg/kg): 4.21 µM
half-life ([1]; Balb/c, po, 10 mg/kg): 9.3 h
SMILES: CNS(=O)(=O)c1ccc2c(Oc3ccc(C(F)(F)F)cc3)cccc2c1 [Comparative compound B2, reference compound]

FaSSIF(pH = 6.5) [2]: 14.0 ug/mL
AUC(0-t) (in vivo): 1040 µM·h
SMILES: CNS(=O)(=O)c1ccc(Nc2ccc(C(F)(F)F)cc2)c(-c2cn(C)cn2)c1 [Comparative compound B3, reference compound]

FaSSIF(pH = 6.5) [2]: 36.2 ug/mL
SMILES: CNS(=O)(=O)c1cnc(Oc2ccc(C(F)(F)F)cc2)c(-c2cn3c(n2)CCC3)c1 [Comparative compound B4, reference compound]

SMILES: CP(C)(=O)c1cnc(Oc2ccc(C(F)(F)F)cc2)c(-c2cn3c(n2)CCC3)c1 [Example 9]
pIC50 ([3]; 24 h): 6.80
MRT ([1]; mice, IV 2 mg/kg): 1.7 h
AUC(0-t) ([1]; mice, IV 2 mg/kg, read-out: AUClast): 5.74 µM·h
clearance ([1]; mice, IV 2 mg/kg, read-out: Cl (converted)): 13.3 mL/min/kg
half-life ([1]; mice, IV 2 mg/kg, read-out: T1/2 (converted)): 1.4 h
MRT ([1]; mice, PO 10 mg/kg): 3.2 h
bioavailability ([1]; mice, PO 10 mg/kg vs IV 2 mg/kg, read-out: F%): 111%
AUC(0-t) ([1]; mice, PO 10 mg/kg, read-out: AUClast): 30.5 µM·h
Cmax ([1]; mice, PO 10 mg/kg, read-out: Cmax): 9.37 µM
half-life ([1]; mice, PO 10 mg/kg, read-out: T1/2 (converted)): 1.9 h

pIC50 (NCI-H28 (NF2 wide-type)): 6.02
pIC50 [4]: < 5.90
pIC50 ([3]; 293T reporter cells, 24 h of drug treatment, read-out: IC50): 7.93
SMILES: Cn1ccc(-c2cc(P(C)(C)=O)cnc2Nc2ccc(C(F)(F)F)cc2)n1 [Example 17]

SMILES: CP(C)(=O)c1ccc(Nc2ccc(C(F)(F)F)cc2)c(-c2cn3c(n2)CCC3)c1 [Example 21]
pIC50 ([3]; 24 h): 8.13

SMILES: Cn1cnc(-c2cc(P3(=O)CCOCC3)ccc2Nc2ccc(C(F)(F)F)cc2)c1 [Example 23]
pIC50 ([3]; 24 h): 7.56

pIC50 (NCI-H28 (NF2 wide-type)): < 4.70
pIC50 [4]: < 4.70
SMILES: CCc1ccc(Oc2cccc3cc(P(C)(C)=O)ccc23)cc1 [Example 25]

pIC50 (NCI-H28 (NF2 wide-type)): < 5.30
pIC50 [4]: < 5.30
SMILES: CP(C)(=O)c1ccc2c(Oc3ccc(C4CC4)cc3)cccc2c1 [Example 26]

pIC50 (NCI-H28 (NF2 wide-type)): < 5.30
pIC50 [4]: < 4.70
SMILES: CP(C)(=O)c1ccc2c(Oc3ccc(OC(F)(F)F)cc3)cccc2c1 [Example 27]
